Test: Pharmacokinetics of GHB in plasma after oral gavage of GHB delivering compounds in rats; relative oral bioavailability vs sodium oxybate
Conditions: vehicle water; for % AUC0-4 hr, relative oral bioavailability vs sodium oxybate / % Cmax, relative oral bioavailability vs sodium oxybate: mean conjugate PK parameter/mean comparator PK parameter
[1] = dose equivalent to 80 mg/kg NaGHB (extrapolated to 100 mg/kg)
[2] = dose equivalent to 80 mg/kg NaGHB, data extrapolated to 100 mg/kg
[3] = molar equivalent of 100 mg/kg NaGHB

| Structure (SMILES) | % AUC0-4 hr, relative oral bioavailability vs sodium oxybate [1] | % Cmax, relative oral bioavailability vs sodium oxybate [1] | AUC0-4 hr of GHB in plasma [2] | Cmax of GHB in plasma [2] | Tmax of GHB in plasma (dose equivalent to 80 mg/kg NaGHB) | AUC0-4 hr of GHB in plasma [3] | Cmax of GHB in plasma [3] | Tmax of GHB in plasma [3] | % AUC0-4 hr, relative oral bioavailability vs sodium oxybate [3] | % Cmax, relative oral bioavailability vs sodium oxybate [3] |
| --- | --- | --- | --- | --- | --- | --- | --- | --- | --- | --- |
| CCOC(=O)OCCCC(=O)O [O-(ethoxycarbonyl)-GHB] | 54% | 51% | 19.4 ng·h/mL | 15.0 ng/mL | 21 min |  |  |  |  |  |
| O=C1CCCO1 [GBL] |  |  |  |  |  | 9.04 ng·h/mL | 15.4 ng/mL | 15 min | 27% | 70% |
